# In PubChem BioAssay AID1259407 (Chemical Carcinogenesis Research Information System (CCRIS), 2018):
# Calls of active or inactive are those of the source. The rule behind the calls is not given here.
# Tested on: CCRIS mutagenicity, Ames/micronucleus/aberration tests
# Experiment: CCRIS mutagenicity studies
structure (smiles),measurement,setting,value
C1OCOCO1,mutagenic call,"Test System: AMES SALMONELLA TYPHIMURIUM, Strain/Indicator: TA97, Metabolic Activation: HAMSTER, LIVER, S-9, AROCLOR 1254 (10 OR 30%), Method: PREINCUBATION",inactive; negative
same,mutagenic call,"Test System: AMES SALMONELLA TYPHIMURIUM, Strain/Indicator: TA97, Metabolic Activation: NONE, Method: PREINCUBATION",inactive; negative
same,mutagenic call,"Test System: AMES SALMONELLA TYPHIMURIUM, Strain/Indicator: TA97, Metabolic Activation: RAT, LIVER, S-9, AROCLOR 1254 (10 OR 30%), Method: PREINCUBATION",inactive; negative
same,mutagenic call,"Test System: AMES SALMONELLA TYPHIMURIUM, Strain/Indicator: TA98, Metabolic Activation: HAMSTER, LIVER, S-9, AROCLOR 1254 (10 OR 30%), Method: PREINCUBATION",inactive; negative
same,mutagenic call,"Test System: AMES SALMONELLA TYPHIMURIUM, Strain/Indicator: TA98, Metabolic Activation: NONE, Method: PREINCUBATION",inactive; negative
same,mutagenic call,"Test System: AMES SALMONELLA TYPHIMURIUM, Strain/Indicator: TA98, Metabolic Activation: NONE, Method: STANDARD PLATE",inactive; negative
same,mutagenic call,"Test System: AMES SALMONELLA TYPHIMURIUM, Strain/Indicator: TA98, Metabolic Activation: RAT, LIVER, S-9, AROCLOR 1254 (10 OR 30%), Method: PREINCUBATION",inactive; negative
same,mutagenic call,"Test System: AMES SALMONELLA TYPHIMURIUM, Strain/Indicator: TA98, Metabolic Activation: RAT, LIVER, S-9, AROCLOR 1254, Method: STANDARD PLATE",inactive; negative
same,mutagenic call,"Test System: AMES SALMONELLA TYPHIMURIUM, Strain/Indicator: TA100, Metabolic Activation: HAMSTER, LIVER, S-9, AROCLOR 1254 (10 OR 30%), Method: PREINCUBATION",inactive; negative
same,mutagenic call,"Test System: AMES SALMONELLA TYPHIMURIUM, Strain/Indicator: TA100, Metabolic Activation: NONE, Method: PREINCUBATION",inactive; negative
same,mutagenic call,"Test System: AMES SALMONELLA TYPHIMURIUM, Strain/Indicator: TA100, Metabolic Activation: NONE, Method: STANDARD PLATE",inactive; negative
same,mutagenic call,"Test System: AMES SALMONELLA TYPHIMURIUM, Strain/Indicator: TA100, Metabolic Activation: RAT, LIVER, S-9, AROCLOR 1254 (10 OR 30%), Method: PREINCUBATION",inactive; negative
same,mutagenic call,"Test System: AMES SALMONELLA TYPHIMURIUM, Strain/Indicator: TA100, Metabolic Activation: RAT, LIVER, S-9, AROCLOR 1254, Method: STANDARD PLATE",inactive; negative
same,mutagenic call,"Test System: AMES SALMONELLA TYPHIMURIUM, Strain/Indicator: TA1535, Metabolic Activation: HAMSTER, LIVER, S-9, AROCLOR 1254 (10 OR 30%), Method: PREINCUBATION",inactive; negative
same,mutagenic call,"Test System: AMES SALMONELLA TYPHIMURIUM, Strain/Indicator: TA1535, Metabolic Activation: NONE, Method: PREINCUBATION",inactive; negative
same,mutagenic call,"Test System: AMES SALMONELLA TYPHIMURIUM, Strain/Indicator: TA1535, Metabolic Activation: NONE, Method: STANDARD PLATE",inactive; negative
same,mutagenic call,"Test System: AMES SALMONELLA TYPHIMURIUM, Strain/Indicator: TA1535, Metabolic Activation: RAT, LIVER, S-9, AROCLOR 1254 (10 OR 30%), Method: PREINCUBATION",inactive; negative
same,mutagenic call,"Test System: AMES SALMONELLA TYPHIMURIUM, Strain/Indicator: TA1535, Metabolic Activation: RAT, LIVER, S-9, AROCLOR 1254, Method: STANDARD PLATE",inactive; negative
same,mutagenic call,"Test System: AMES SALMONELLA TYPHIMURIUM, Strain/Indicator: TA1537, Metabolic Activation: NONE, Method: STANDARD PLATE",inactive; negative
same,mutagenic call,"Test System: AMES SALMONELLA TYPHIMURIUM, Strain/Indicator: TA1537, Metabolic Activation: RAT, LIVER, S-9, AROCLOR 1254, Method: STANDARD PLATE",inactive; negative
same,mutagenic call,"Test System: AMES SALMONELLA TYPHIMURIUM, Strain/Indicator: TA1538, Metabolic Activation: NONE, Method: STANDARD PLATE",inactive; negative
same,mutagenic call,"Test System: AMES SALMONELLA TYPHIMURIUM, Strain/Indicator: TA1538, Metabolic Activation: RAT, LIVER, S-9, AROCLOR 1254, Method: STANDARD PLATE",inactive; negative
Cc1ccc2cc3c(c4c2c1CC4)[C@@H](O)[C@@H](O)c1ccccc1-3,mutagenic call,"Test System: CHINESE HAMSTER V-79, Strain/Indicator: V-79/8-AZAGUANINE, Metabolic Activation: NONE, Method: STANDARD PLATE",active; positive
